In patent US5468773A, “Methods for inhibiting bone loss and cartilage degradation using wortmannin and its analogs” (Eli Lilly and Company, priority 1994, dated 1995):
Where two headings read alike, the source gives them in different places. Ends that are not written are not given here.

Assays:
hen osteoclasts = test: inhibition of in vitro bone resorption activity of hen osteoclasts; assay type: cell-based; details: for percent of control bone resorption: mean ± SE, n=3-6
Method: (§1) Control resorption in Table 2b corresponded to 12-62 Howship's lacunae per bone slice (n=4-4. mean ±SE).
As summarized in Table 3, the various analogs inhibited the resorption of hen osteoclasts with IIIA IC50=10 nM; IIIb, IC50=100 nM; and Ib, IC50=500 nM. Data presented are percent of control bone resorption (n=3-6, mean ±SE). Control levels of resorption varied from 26-49 mg bone resorbed between days 4-6 in culture.

[1] = tested on: post-menopausal loss of bone; details: chronic treatment, clinical data; background; cited from earlier work
[2] = tested on: osteoclastic bone resorption; test: serum calcium in a rat model of secondary hyperparathyroidism (calcium deficient diet), 6 hr infusion; assay type: in vivo, Sprague Dawley rats; details: T=0 control 12 mg/dl, P<0.05
From the text: Compounds were also examined in a rat model of secondary hyperparathyroidism according to similars method as set out in Thomas et al., Bone and Mineral, 4, pp. 73-82 (1988) in an effort to examine the ability of these compounds to inhibit osteoclastic bone resorption in vivo. Serum calcium levels (mg/dl) were previously shown to be dependant on bone resorption in Sprague Dawley rats (400 g males) maintained on a calcium deficient diet for 2 weeks. Serum calcium levels were examined colorimetrically (Sigma, St. Louis) before (T=O) and after 6 hr infusion (T=6) of compounds at a rate of 0.08 ml/hr through cannula inserted into the jugular vein of anesthesized rates. At T=0, the serum calcium of a control rat was 12 mg/dl.

rat osteoclasts = test: inhibition of in vitro bone resorption activity of rat osteoclasts (Howship's lacunae per bone slice); assay type: cell-based; details: Osteoclast, Table 2b, mean ± SE, read-out: % Control Bone Resorption
From the text: as §1

ovariectomized rats = test: bone mineral density and content of left proximal tibiae in ovariectomized rats (pQCT); assay type: in vivo, rat; details: 5 weeks, mean ± SD, n=6; for Bone Content: Sham 14 ± 1.5, OVX 10.4 ± 1.2; for Total Bone Mineral Density: Sham 590 ± 26, OVX 494 ± 29
From the text: As summarized in Table 4, IIIa was also examined in 6 month old, ovariectomized rats. The bone mineral density (mg/cm^3) and bone mineral content (mg) of the left proximal tibiae were quantitated by computer tomography with a Norland 960 pQCT after daily dosing per os for 5 weeks, similar to the methods of Griffin et al., "Dual-energy X-ray Absorptiometry of the Rat: Accuracy, Precision and Measurement of Bone Loss", J. Bone Miner. Res 8, pp. 795-800 (1993). There were five groups of rats with n=6 per group: Sham, OVX, 0.001, 0.01, and 0.1 mg of IIIa/kg per os daily. In vivo data are presented for a 2 mm slice of the left proximal tibia at 5 weeks post-ovariectomy (mean ±standard deviation).

mammalian osteoclasts = details: background; cited from earlier work
[3] = Table 3, concentration 1 × 10^-6
[4] = Table 3, concentration 1 × 10^-7
[5] = Table 3, concentration 1 × 10^-8
[6] = Table 3, concentration 1 × 10^-9
[7] = 1 mg/kg/day infused via jugular vein
[8] = Osteoclast, read-out: % Control Bone Resorption

Cc1c2c(c(O)c3occ(C(=O)O)c13)[C@@H]1CCC(=O)[C@@]1(C)C=C2 [IVa]
percent of control bone resorption (hen osteoclasts; [3]): 105 ± 10%
percent of control bone resorption (hen osteoclasts; [4]): 110 ± 13%
percent of control bone resorption (hen osteoclasts; [5]): 99 ± 15%
percent of control bone resorption (hen osteoclasts; [6]): 93 ± 14%

calcitonin: calcitonin has been used to treat osteoporotic patients (CGNLSTCMLGTYTQDFNKFHTFPQTAIGVGAP; ends and bridges not checked; cysteine pairing not given here; UniProt P01258 85-116, looked up)
arrest of post-menopausal loss of bone [1]: ineffective to arrest the post-menopausal loss of bone

COC[C@H]1OC(=O)c2coc3c2[C@@]1(C)C1=C(C3=O)[C@@H]2CCC(=O)[C@@]2(C)C[C@H]1OC(C)=O [Wortmannin, wortmannin]
serum calcium after 6 hr of infusion [2, 7]: approximately 9 mg/dl
activity at 1 µM (rat osteoclasts; 1 × 10^-6 M): 3 ± 3%
activity at 0.1 µM (rat osteoclasts; 1 × 10^-7 M): 30 ± 6%
activity at 0.01 µM (rat osteoclasts; 1 × 10^-8 M): 32 ± 13%
activity at 0.001 µM (rat osteoclasts; 1 × 10^-9 M): 79 ± 22%
activity at 0.0001 µM (rat osteoclasts; 1 × 10^-10 M): 93 ± 11%
activity at 0.01 µM (hen osteoclasts; [8]): 90 ± 7%
activity at 0.05 µM (hen osteoclasts; [8]): 79 ± 2%
activity at 0.1 µM (hen osteoclasts; [8]): 58 ± 6%
activity at 0.5 µM (hen osteoclasts; [8]): 52 ± 3%
activity at 1 µM (hen osteoclasts; [8]): 54 ± 4%
activity at 5 µM (hen osteoclasts; [8]): 19 ± 1%
activity at 10 µM (hen osteoclasts; [8]): 23 ± 7%
IC50 (hen osteoclasts; Osteoclast, read-out: IC50, in vitro bone resorption activity): 300 nM

COC[C@H]1OC(=O)c2coc3c2[C@@]1(C)C1=C(C3=O)[C@@H]2CC[C@H](O)[C@@]2(C)CC1 [IIIb, 11-Desacetoxy-17α-dihydrowortmannin]
IC50 (hen osteoclasts; Osteoclast, read-out: IC50, resorption of hen osteoclasts): 100 nM
percent of control bone resorption (hen osteoclasts; [3]): 26 ± 3%
percent of control bone resorption (hen osteoclasts; [4]): 50 ± 4%
percent of control bone resorption (hen osteoclasts; [5]): 88 ± 19%
percent of control bone resorption (hen osteoclasts; [6]): 124 ± 23%

COC[C@H]1OC(=O)c2coc3c2[C@@]1(C)C1=C(C3=O)[C@@H]2CC[C@H](O)[C@@]2(C)C[C@H]1OC(C)=O [IIIa, 17α-Dihydrowortmannin]
serum calcium after 6 hr of infusion [2, 7]: ~5 mg/dL
Bone Content (ovariectomized rats; 0.001 mg/kg/day per os): 13.6 ± .6 mg
Total Bone Mineral Density (ovariectomized rats; 0.001 mg/kg/day per os): 528 ± 33 mg/cm3
Bone Content (ovariectomized rats; 0.01 mg/kg/day per os): 13.5 ± 1 mg
Total Bone Mineral Density (ovariectomized rats; 0.01 mg/kg/day per os): 545 ± 26 mg/cm3
Bone Content (ovariectomized rats; 0.1 mg/kg/day per os): 11.5 ± .7 mg
Total Bone Mineral Density (ovariectomized rats; 0.1 mg/kg/day per os): 494 ± 18 mg/cm3
percent of control bone resorption (hen osteoclasts; [3]): 8 ± 1%
percent of control bone resorption (hen osteoclasts; [4]): 29 ± 4%
percent of control bone resorption (hen osteoclasts; [5]): 67 ± 5%
percent of control bone resorption (hen osteoclasts; [6]): 94 ± 5%

COC[C@H]1OC(=O)c2coc3c2[C@@]1(C)C1=C(C3=O)[C@@H]2CCC(=O)[C@@]2(C)CC1 [Ib, 11-deacetoxywortmannin]
IC50 (hen osteoclasts; Osteoclast, hen osteoclasts, analogs, Example 2, read-out: IC50, resorption of hen osteoclasts): 500 nM
percent of control bone resorption (hen osteoclasts; [3]): 42 ± 3%
percent of control bone resorption (hen osteoclasts; [4]): 90 ± 15%
percent of control bone resorption (hen osteoclasts; [5]): 97 ± 17%
percent of control bone resorption (hen osteoclasts; [6]): 106 ± 10%

salmon calcitonin [reference compound]
serum calcium after 6 hr of infusion ([2]; positive control, 12 ug/kg/day): 9 mg/dL
inhibition of resorption activity of mammalian osteoclasts (mammalian osteoclasts): directly inhibit the resorption activity of mammalian osteoclasts
